Experimental data as given in EPA's ToxRefDB 2.

Key:
mouse [1] = conditions: Prenatal developmental toxicity study, cd1, Oral, Gavage/Intubation, dose end: 17 GD
rabbit [2] = conditions: Prenatal developmental toxicity study, dutch, Oral, Gavage/Intubation, dose end: 18 GD
rat [3] = conditions: Prenatal developmental toxicity study, sprague dawley, Oral, Gavage/Intubation, dose end: 15 GD
rat [4] = conditions: Combined chronic toxicity/carcinogenicity, fischer, Oral, Feed, dose end: 2 year
mouse [5] = conditions: Carcinogenicity, cd1, Oral, Feed, dose end: 78 week
rabbit [6] = conditions: Prenatal developmental toxicity study, new zealand white, Oral, Gavage/Intubation, dose end: 18 GD
rat [7] = conditions: Prenatal developmental toxicity study, sprague dawley, Oral, Gavage/Intubation, dose end: 16 GD
rat [8] = conditions: Multigenerational reproductive toxicity study, wistar, Oral, Feed, dose end: 2 generation
[9] = group: developmental, systemic / in life observation / body weight / fetal weight
[10] = group: maternal, reproductive / reproductive performance / postimplantation loss / postimplantation loss + systemic / in life observation / body weight / …
[11] = group: maternal, reproductive / reproductive performance / resorptions / resorptions + systemic / in life observation / body weight / body weight gain + …
[12] = group: developmental, developmental / developmental malformation / bone / [other] + developmental / developmental malformation / bone / incomplete ossification + …
[13] = group: maternal, systemic / in life observation / body weight / body weight gain
[14] = group: cholinesterase, cholinesterase / cholinesterase / cholinesterase / erythrocyte cholinesterase (che)
[15] = group: systemic, systemic / pathology microscopic / stomach / mineralization + systemic / in life observation / body weight / body weight + systemic / in …
[16] = group: cholinesterase, cholinesterase / cholinesterase / cholinesterase / brain cholinesterase (che) + cholinesterase / cholinesterase / cholinesterase / …
[17] = group: systemic, systemic / in life observation / body weight / body weight + systemic / in life observation / body weight / body weight gain + systemic / in…
[18] = group: developmental, developmental / developmental malformation / bone / absent + developmental / developmental malformation / bone / full supernumerary
[19] = group: maternal, systemic / in life observation / clinical signs / respiration (dyspnea)
[20] = group: maternal, systemic / in life observation / food consumption / food consumption
[21] = group: maternal, systemic / in life observation / food consumption / food consumption + systemic / in life observation / body weight / body weight
[22] = group: offspring, developmental / developmental landmark / preputial separation / preputial separation + systemic / in life observation / body weight / …
[23] = group: parental, systemic / pathology gross / eye / opacity + systemic / pathology microscopic / eye / inflammation + systemic / pathology microscopic / eye…
[24] = group: reproductive, reproductive / reproductive performance / estrous cycle / abnormal + reproductive / reproductive performance / estrous cycle / corpora lutea

`C=C(C)C(N)=O` [Methacrylamide] was tested, and the LEL (mouse [1]; [9]) was 120 mg/kg/day, the LOAEL (mouse [1]; [9]) was > 180 mg/kg/day and the NEL (mouse [1]; [9]) was 60 mg/kg/day. The NOAEL (mouse [1]; [9]) was ≥ 180 mg/kg/day, the LOAEL (mouse [1]; [10]) was > 180 mg/kg/day and the NEL (mouse [1]; [10]) was 60 mg/kg/day. For the same molecule, the NOAEL (mouse [1]; [10]) was ≥ 180 mg/kg/day and the LEL (mouse [1]; group: maternal, systemic / organ weight / liver / relative to body weight) was 120 mg/kg/day.
For `Cc1cccc(N)c1N` [2,3-Diaminotoluene], the LEL (rabbit [2]; [9]) was 100 mg/kg/day, the LOAEL (rabbit [2]; [9]) was > 100 mg/kg/day and the NEL (rabbit [2]; [9]) was 30 mg/kg/day. For the same molecule, the NOAEL (rabbit [2]; [9]) was ≥ 100 mg/kg/day, the NEL (rabbit [2]; group: maternal, reproductive / reproductive performance / resorptions / resorptions + systemic / in life observation / body weight / body weight gain) was 30 mg/kg/day and the LEL (rabbit [2]; [11]) was 100 mg/kg/day. For the same molecule, the LOAEL (rabbit [2]; [11]) was > 100 mg/kg/day, the NOAEL (rabbit [2]; [11]) was ≥ 100 mg/kg/day and the LEL (rat [3]; group: developmental, developmental / developmental malformation / bone / [other] + developmental / developmental malformation / bone / incomplete ossification) was 100 mg/kg/day. For the same molecule, the LOAEL (rat [3]; [12]) was > 300 mg/kg/day, the NEL (rat [3]; [12]) was 30 mg/kg/day and the NOAEL (rat [3]; [12]) was ≥ 300 mg/kg/day. The LEL (rat [3]; [13]) was 300 mg/kg/day, the LOAEL (rat [3]; [13]) was > 300 mg/kg/day and the NEL (rat [3]; [13]) was 100 mg/kg/day. The NOAEL (rat [3]; [13]) was ≥ 300 mg/kg/day.
With `CCOC(=O)CC(SP(=O)(OC)OC)C(=O)OCC` (stereo not drawn) [Malaoxon] the LEL (rat [4]; [14]) was 1 mg/kg/day, the LOAEL (rat [4]; [14]) was 1 mg/kg/day and the NEL (rat [4]; [14]) was < 1 mg/kg/day. For the same molecule, the NOAEL (rat [4]; [14]) was < 1 mg/kg/day, the LOAEL (rat [4]; group: systemic, systemic / pathology microscopic / stomach / mineralization) was 57 mg/kg/day and the NEL (rat [4]; [15]) was 1 mg/kg/day. It also gave an NOAEL (rat [4]; [15]) of 1 mg/kg/day and an LEL (rat [4]; group: systemic, systemic / pathology microscopic / stomach / mineralization + systemic / in life observation / food consumption / food consumption) of 57 mg/kg/day.
`CCN(CC)c1nc(C)cc(OP(=S)(OC)OC)n1` [Pirimiphos-methyl] was tested, and the LEL (mouse [5]; [16]) was 8.3 mg/kg/day, the LOAEL (mouse [5]; [16]) was 8.3 mg/kg/day and the NEL (mouse [5]; [16]) was < 8.3 mg/kg/day. The NOAEL (mouse [5]; [16]) was < 8.3 mg/kg/day, the LEL (mouse [5]; [17]) was 33 mg/kg/day and the LOAEL (mouse [5]; [17]) was 33 mg/kg/day. It also gave an NEL (mouse [5]; [17]) of 8.3 mg/kg/day and an NOAEL (mouse [5]; [17]) of 8.3 mg/kg/day.
With `C=CCOC(Cn1ccnc1)c1ccc(Cl)cc1Cl.O=S(=O)(O)O` (stereo not drawn) [Imazalil sulfate] the LEL (rabbit [6]; [18]) was 20 mg/kg/day, the LOAEL (rabbit [6]; [18]) was > 20 mg/kg/day and the NEL (rabbit [6]; [18]) was 10 mg/kg/day. For the same molecule, the NOAEL (rabbit [6]; [18]) was ≥ 20 mg/kg/day, the LOAEL (rabbit [6]; [11]) was 10 mg/kg/day and the NOAEL (rabbit [6]; [11]) was 5 mg/kg/day. The LEL (rabbit [6]; [19]) was 5 mg/kg/day, the NEL (rabbit [6]; [19]) was < 5 mg/kg/day and the LEL (rat [7]; [9]) was 80 mg/kg/day. It also gave an LOAEL (rat [7]; [9]) of 80 mg/kg/day, an NEL (rat [7]; [9]) of 40 mg/kg/day and an NOAEL (rat [7]; [9]) of 40 mg/kg/day. The LOAEL (rat [7]; [20]) was 40 mg/kg/day, the NOAEL (rat [7]; [20]) was < 40 mg/kg/day and the LEL (rat [7]; [21]) was 40 mg/kg/day. For the same molecule, the NEL (rat [7]; [21]) was < 40 mg/kg/day.
For `CS(=O)(=O)c1ccc(C(=O)C2C(=O)CCCC2=O)c(Cl)c1COCC(F)(F)F` [Tembotrione], the LEL (rat [8]; [22]) was 1.3 mg/kg/day, the LOAEL (rat [8]; [22]) was 1.3 mg/kg/day and the NEL (rat [8]; [22]) was < 1.3 mg/kg/day. The NOAEL (rat [8]; [22]) was < 1.3 mg/kg/day, the LEL (rat [8]; [23]) was 1.3 mg/kg/day and the LOAEL (rat [8]; [23]) was 1.3 mg/kg/day. For the same molecule, the NEL (rat [8]; [23]) was < 1.3 mg/kg/day, the NOAEL (rat [8]; [23]) was < 1.3 mg/kg/day and the LEL (rat [8]; [24]) was 123 mg/kg/day. For the same molecule, the LOAEL (rat [8]; [24]) was 123 mg/kg/day, the NEL (rat [8]; [24]) was 16.2 mg/kg/day and the NOAEL (rat [8]; [24]) was 16.2 mg/kg/day.
